Measurements taken from patent US20250262222A1, “HETEROCYCLIC COMPOUNDS, COMPOSITIONS THEREOF, AND METHODS OF TREATMENT THEREWITH” (BeiGene Switzerland GmbH, priority 2022, published 2025).

Columns and labels:
[1] = test system: ERK1/2 phosphorylation in SW1990 tumors; experiment: SW1990 PD studies; format: in vivo, Female NCG mice; conditions: oral administration
Experimental: Female NCG mice were subcutaneously implanted with 5×10^6 SW1990 cells per 200 μL PBS/matrigel in the right flank. After inoculation, when tumors reached a mean volume of approximately 350-450 mm^3 in size, mice were randomized into treatment groups. Randomized mice would receive a single dose of vehicle consisting of 0.5% MC or test compounds at various dose (e.g. 30, 50, or 100 mg/kg) by oral administration. Plasma was collected at 0.5, 2, 4, and 7 hours, and tumor was collected at 7 hours after dosing to determine exposure levels. Tumor fragments were snap frozen in homogenization tubes with liquid nitrogen and homogenized with T-PER Tissue Protein Extraction Buffer with protease and phosphatase inhibitors added fresh before use. Tumor lysates were then analyzed for ERK1/2 phosphorylation.

[2] = test system: pERK1/2(THR202/TYR204) level in AsPC-1 cell line; experiment: KRAS G12D pERK assay; format: cell-based; conditions: Homo sapiens, ASPC1, 2 h, AsPC-1 cells, 2 h compound treatment, HTRF
In short: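 AsPC-1 (KRAS G12D) cells, 30000/well, seeded overnight, then treated 2 h with a 10-point series at 0 to 10 μM final. Lysate pERK1/2 (Thr202/Tyr204) detected by HTRF after overnight antibody incubation at room temperature; IC50 from percent inhibition versus log concentration.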

[3] = test system: pERK1/2(THR202/TYR204) level in SW620 cell line; experiment: KRAS G12V pERK assay; format: cell-based; conditions: Homo sapiens, SW-620; SW620 cells, 2 hrs compound treatment, HTRF
Experimental: SW620 cell line was used in this study. Cells were maintained in RPMI 1640 supplemented with 10% fetal bovine serum (Thermo Fisher), 50 units/mL penicillin and streptomycin (Thermo Fisher) and kept at 37° C. in a humidified atmosphere of 5% CO2 in air. Cells were reinstated from frozen stocks that were laid down within 30 passages from the original cells purchased. 40000 cells per well were seeded into a 96-well plate and incubated overnight. Cells were treated with a 10-point dilution series. The final compound concentration is from 0 to 10 μM. After 2 hrs compound treatment, cells were lysed, and the pERK1/2(THR202/TYR204) level in the cell lysates was detected by HTRF kit (Cisbio). In brief, a total of 16 μL of cell lysate from each well of a 96-well plate was transferred to a 384-well white assay plate. Lysate from each well was incubated with 2 μL of Eu3+-cryptate (donor) labeled anti-phospho-ERK1/2 and 2 μL of D2 (acceptor) labeled anti-phospho-ERK1/2 antibodies (Cisbio) overnight in dark at room temperature. When donor and acceptor are in close proximity, excitation of the donor with laser triggers a Fluorescence Resonance Energy Transfer (FRET) towards the acceptor, which in turn fluoresces at 655 nm wavelength. FRET signals were measured using a PHERAstar FSX reader (BMG Labtech). IC50 determination was performed by fitting the curve of percent inhibition versus the log of the inhibitor concentration using Dotmatics.

Structure (SMILES)	oral pharmacodynamic effects [1]	IC50 [2] [nM]	IC50 [3] [nM]
Nc1cc(Cl)c(C(F)(F)F)c(-c2nc3c4c(nc(OCC56COC(C(F)F)(C5)C6)nc4c2F)N2C[C@H]4CC[C@H](N4)[C@H]2CCO3)c1 [Example 35, 3-chloro-5-((6aR,7S,10R)-13-((1-(difluoromethyl)-2-oxabicyclo[2.1.1]hexan-4-yl)methoxy)-1-fluoro-5,6,6a,7,8,9,10,11-octahydro-4-oxa-3,11a,12,14,15-pentaaza-7,10-methanocyclohepta[4,5]cyclo-octa[1,2,3-de]naphthalen-2-yl)-4-(trifluoromethyl)aniline]	enhanced oral pharmacodynamic effects	61	
Cc1cc(N)cc(-c2nc3c4c(nc(OCC5(C(F)F)COC5)nc4c2F)N2C[C@H]4CC[C@H](N4)[C@H]2CCO3)c1C(F)(F)F [Example 26, 3-((6aR,7S,10R)-13-((3-(difluoromethyl)oxetan-3-yl)methoxy)-1-fluoro-5,6,6a,7,8,9,10,11-octahydro-4-oxa-3,11a,12,14,15-pentaaza-7,10-methanocyclohepta[4,5]cycloocta[1,2,3-de]naphthalen-2-yl)-5-methyl-4-(trifluoromethyl)aniline]	enhanced oral pharmacodynamic effects	142	
Nc1cc(Cl)c(C(F)(F)F)c(-c2nc3c4c(nc(OCC56CCC(C5)OC6)nc4c2F)N2C[C@H]4CC[C@H](N4)[C@H]2CCO3)c1 [Example 41, 3-((6aR,7S,10R)-13-((2-oxabicyclo[2.2.1]heptan-4-yl)methoxy)-1-fluoro-5,6,6a,7,8,9,10,11-octahydro-4-oxa-3,11a,12,14,15-pentaaza-7,10-methanocyclohepta[4,5]cyclo-octa[1,2,3-de]naphthalen-2-yl)-5-chloro-4-(trifluoromethyl)aniline]	enhanced oral pharmacodynamic effects	112	
C#Cc1c(F)ccc2cc(O)cc(-c3nc4c5c(nc(OC[C@@]67CCCN6C[C@H](F)C7)nc5c3F)N3CCOC[C@H]3CO4)c12 [Example 4, 5-ethynyl-6-fluoro-4-((S)-1-fluoro-11-(((2R,7aS)-2-fluorotetrahydro-1H-pyrrolizin-7a(5H)-yl)methoxy)-5a,6,8,9-tetrahydro-5H-4,7-dioxa-3,9a,10,12-tetraazabenzo[4,5]cyclohepta[1,2,3-de]naphthalen-2-yl)naphthalen-2-ol]		76	6.7
Nc1cc(Cl)c(C(F)(F)F)c(-c2nc3c4c(nc(OC[C@@]56CCCN5C[C@H](F)C6)nc4c2F)N2CCOCCC2CO3)c1 (stereo partly drawn) [Example 21, 3-chloro-5-(1-fluoro-12-(((2R,7aS)-2-fluorotetrahydro-1H-pyrrolizin-7a(5H)-yl)methoxy)-5,5a,6,7,9,10-hexahydro-4,8-dioxa-3,10a,11,13-tetraazanaphtho[1,8-ab]heptalen-2-yl)-4-(trifluoromethyl)aniline]			74
C#Cc1c(F)ccc2cc(O)cc(-c3nc4c5c(nc(OCC6(CN7CCOCC7)CC6)nc5c3F)N3CCOC[C@H]3CO4)c12 [Example 8, (S)-5-ethynyl-6-fluoro-4-(1-fluoro-11-((1-(morpholinomethyl)cyclopropyl)methoxy)-5a,6,8,9-tetrahydro-5H-4,7-dioxa-3,9a,10,12-tetraazabenzo[4,5]cyclohepta[1,2,3-de]naphthalen-2-yl)naphthalen-2-ol]			43
C#Cc1c(F)ccc2cc(O)cc(-c3nc4c5c(nc(OC[C@@H]6C[C@@H](F)CN6C)nc5c3F)N3CCOC[C@H]3CO4)c12 [Example 7, 5-ethynyl-6-fluoro-4-((S)-1-fluoro-11-(((2S,4R)-4-fluoro-1-methylpyrrolidin-2-yl)methoxy)-5a,6,8,9-tetrahydro-5H-4,7-dioxa-3,9a,10,12-tetraazabenzo[4,5]cyclohepta[1,2,3-de]naphthalen-2-yl)naphthalen-2-ol]			72
